# Test results reported in patent publication US20240018122A1, “PYRIDAZINYL AMINO DERIVATIVES AS ALK5 INHIBITORS” (CHIESI FARMACEUTICI S.P.A., priority 2020, published 2024).
# Molecular target: human ALK5 (Homo sapiens (Human), UniProt P36897)
# Assay: ADP-GLO Kinases assay, inhibitory activity on ALK5
# Assay type: biochemical
# Conditions: purified recombinant human ALK5 2.6 nM, TGFβ1 peptide substrate, 25° C, 150 min incubation, ADP-Glo detection; read-out: ALK5 IC50
# Procedure: The enzymatic activity of compounds of the present invention was monitored measuring the formation of ADP using the ADP-GLO Kinases assay. Following the incubation of the purified enzyme, a substrate and ATP, the produced ADP was converted into ATP, which in turn was converted into light by Ultra-Glo Luciferase. The luminescent signal positively correlated with ADP amount and kinase activity. […] The assay was performed in 384-well format and was validated using a selection of reference compounds that was tested in 11 point concentration-response curve.
# human ALK5, sequence (P36897 80-503 limits assumed): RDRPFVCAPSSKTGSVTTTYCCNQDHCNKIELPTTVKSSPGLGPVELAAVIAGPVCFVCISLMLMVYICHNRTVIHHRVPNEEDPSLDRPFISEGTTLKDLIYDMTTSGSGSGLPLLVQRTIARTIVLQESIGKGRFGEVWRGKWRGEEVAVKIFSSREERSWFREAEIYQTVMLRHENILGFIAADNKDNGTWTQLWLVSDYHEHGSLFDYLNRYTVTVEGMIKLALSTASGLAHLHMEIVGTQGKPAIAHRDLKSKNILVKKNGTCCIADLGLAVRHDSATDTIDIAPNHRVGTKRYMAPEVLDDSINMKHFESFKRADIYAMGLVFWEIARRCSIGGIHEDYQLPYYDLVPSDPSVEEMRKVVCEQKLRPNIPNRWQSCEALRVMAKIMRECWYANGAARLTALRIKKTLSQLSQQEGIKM
row,SMILES,IC50
1,"Cc1nnc(-c2cc(Cl)ccc2F)cc1Nc1ccnc(NC(=O)CCN2CCN(C)CC2)c1 [Example 16, N-(4-{[6-(5-chloro-2-fluorophenyl)-3-methylpyridazin-4-yl]amino}pyridin-2-yl)-3-(4-methylpiperazin-1-yl)propanamide]",< 1 nM
2,"CN(C)CCN1CCN(CCOc2ccc3c(Nc4cnnc(-c5cc(Cl)ccc5F)c4)ccnc3c2)CC1 [Example 68, N-[6-(5-Chloro-2-Fluorophenyl)Pyridazin-4-Yl]-7-[2-[4-[2-(Dim Ethylamino)Ethyl]Piperazin-1-Yl]Ethoxy]Quinolin-4-Amine]",< 1 nM
3,"CN1CCC(NC(=O)c2cc3c(Nc4cnnc(-c5cc(Cl)ccc5F)c4)ccnc3cn2)CC1 [Example 26, 4-{[6-(5-Chloro-2-Fluorophenyl)Pyridazin-4-Yl]Amino}-N-(1-Methylpiperidin-4-Yl)-1,7-Naphthyridine-6-Carboxamide]",1 to 5 nM
4,"CC(=O)N1CCN(CCOc2ccc3c(Nc4cnnc(-c5cc(Cl)ccc5F)c4)ccnc3c2)CC1 [Example 35, 1-(4-{2-[(4-{[6-(5-Chloro-2-Fluorophenyl)Pyridazin-4-Yl]Amino}Quinolin-7-Yl)Oxy]Ethyl}Piperazin-1-Yl)Ethan-1-One]",< 1 nM
5,"Cc1nnc(-c2cc(Cl)ccc2F)cc1Nc1ccnc(NC(=O)CCN2CCN(CCC#N)CC2)c1 [Example 84, N-(4-{[6-(5-Chloro-2-Fluorophenyl)-3-Methylpyridazin-4-Yl]Amino}Pyridin-2-Yl)-3-[4-(2-Cyanoethyl)Piperazin-1-Yl]Propanamide]",< 1 nM
6,"CN1CCC(CCN2CCN(C(=O)Oc3ccc4c(Nc5cnnc(-c6cc(Cl)ccc6F)c5)ccnc4c3)CC2)CC1 [Example 64, 4-{[6-(5-Chloro-2-Fluorophenyl)Pyridazin-4-Yl]Amino}Quinolin-7-Yl 4-[2-(1-Methylpiperidin-4-Yl)Ethyl]Piperazine-1-Carboxylate]",< 1 nM
7,"Cc1nnc(-c2cc(Cl)ccc2F)cc1Nc1ccnc(NC(=O)CCN2CCNC(CC(=O)O)C2)c1 (centres unmarked) [Example 116, 2-(4-{2-[(4-{[6-(5-chloro-2-fluorophenyl)-3-methylpyridazin-4-yl]amino}pyridin-2-yl)carbamoyl]ethyl}piperazin-2-yl)acetic acid]",< 1 nM
8,"CC(=O)N1CCCN(CCC(=O)Nc2cc(Nc3cnnc(-c4cc(Cl)ccc4F)c3)ccn2)C1 [Example 43, 3-(3-Acetyl-1,3-Diazinan-1-Yl)-N-(4-{[6-(5-Chloro-2-Fluorophenyl)Pyridazin-4-Yl]Amino}Pyridin-2-Yl)Propanamide]",1 to 5 nM
9,"CN1CCN(CCC(=O)Nc2cc(Nc3cnnc(-c4cc(Cl)ccc4F)c3)ccn2)C(=O)C1 [Example 22, N-(4-{[6-(5-Chloro-2-Fluorophenyl)Pyridazin-4-Yl]Amino}Pyridin-2-Yl)-3-(4-Methyl-2-Oxopiperazin-1-Yl)Propanamide]",1 to 5 nM
10,"O=C(OCCN1CCOCC1)c1ccc2c(Nc3cnnc(-c4cc(Cl)ccc4F)c3)ccnc2c1 [Example 6, 2-(Morpholin-4-Yl)Ethyl 4-{[6-(5-Chloro-2-Fluorophenyl)Pyridazin-4-Yl]Amino}Quinoline-7-Carboxylate]",< 1 nM
11,"O=C(CCN1CCNCC1)Nc1cc(Nc2cnnc(-c3cc(Cl)ccc3F)c2)ccn1 [Example 2, N-(4-{[6-(5-Chloro-2-Fluorophenyl)Pyridazin-4-Yl]Amino}Pyridin-2-Yl)-3-(Piperazin-1-Yl)Propanamide]",< 1 nM
12,"CN1CC(NC(=O)c2cc3c(Nc4cnnc(-c5cc(Cl)ccc5F)c4)ccnc3cn2)C1 [Example 23, 4-{[6-(5-Chloro-2-Fluorophenyl)Pyridazin-4-Yl]Amino}-N-(1-Methylazetidin-3-Yl)-1,7-Naphthyridine-6-Carboxamide]",5 to 10 nM
13,"O=C(Oc1ccc2c(Nc3cnnc(-c4cc(Cl)ccc4F)c3)ccnc2c1)N1CCC2(CCNCC2)C1 [Example 112, 4-{[6-(5-Chloro-2-Fluorophenyl)Pyridazin-4-Yl]Amino}Quinolin-7-Yl 2,8-Diazaspiro[4.5]Decane-2-Carboxylate]",< 1 nM
14,"O=C(CCCN1CCOCC1)Nc1cc(Nc2cnnc(-c3cc(Cl)ccc3F)c2)ccn1 [Example 8, N-(4-{[6-(5-Chloro-2-Fluorophenyl)Pyridazin-4-Yl]Amino}Pyridin-2-Yl)-4-(Morpholin-4-Yl)Butanamide]",< 1 nM
15,"CN1CCC2(CC1)CCN(C(=O)Oc1ccc3c(Nc4cnnc(-c5cc(Cl)ccc5F)c4)ccnc3c1)C2 [Example 118, 4-{[6-(5-Chloro-2-Fluorophenyl)Pyridazin-4-Yl]Amino}Quinolin-7-Yl 8-Methyl-2,8-Diazaspiro[4.5]Decane-2-Carboxylate]",< 1 nM
16,"CN1CCC(Oc2ccc3c(Nc4cnnc(-c5cc(Cl)ccc5F)c4)ccnc3c2)CC1 [Example 73, N-[6-(5-Chloro-2-Fluorophenyl)Pyridazin-4-Yl]-7-[(1-Methylpiperidin-4-Yl)Oxy]Quinolin-4-Amine]",< 1 nM
17,"Cc1nnc(-c2cc(Cl)ccc2F)cc1Nc1ccnc(NC(=O)CCN2CCOCC2)c1 [Example 78, N-(4-{[6-(5-Chloro-2-Fluorophenyl)-3-Methylpyridazin-4-Yl]Amino}Pyridin-2-Yl)-3-(Morpholin-4-Yl)Propanamide]",< 1 nM
18,"CC(=O)N1CCN(CCC(=O)Nc2cc(Nc3cnnc(-c4cc(Cl)ccc4F)c3)ccn2)CC1 [Example 31, 3-(4-Acetylpiperazin-1-Yl)-N-(4-{[6-(5-Chloro-2-Fluorophenyl)Pyridazin-4-Yl]Amino}Pyridin-2-Yl)Propanamide]",< 1 nM

# Now from value to compound:
row,IC50,SMILES
1,< 1 nM,"N#CCCN1CCN(CCC(=O)Nc2cc(Nc3cc(-c4cc(Cl)ccc4F)nnc3C(F)(F)F)ccn2)CC1 [Example 186, N-(4-{[6-(5-chloro-2-fluorophenyl)-3-(trifluoromethyl)pyridazin-4-yl]amino}pyridin-2-yl)-3-[4-(2-cyanoethyl)piperazin-1-yl]propenamide]"
2,< 1 nM,Cc1nnc(-c2cc(Cl)ccc2F)cc1Nc1ccnc(NC(=O)CCN2CCN(C)C(CO)C2)c1 (centres unmarked) [Example 170]
3,< 1 nM,"Cc1nnc(-c2cc(Cl)ccc2F)cc1Nc1ccnc(NC(=O)CCN2CC3CC2CN3C)c1 (centres unmarked) [Example 121, N-(4-{[6-(5-Chloro-2-Fluorophenyl)-3-Methylpyridazin-4-Yl]Amino}Pyridin-2-Yl)-3-{5-Methyl-2,5-Diazabicyclo[2.2.1]Heptan-2-Yl}Propanamide]"
4,< 1 nM,"CCOC(=O)C1CN(CCC(=O)Nc2cc(Nc3cc(-c4cc(Cl)ccc4F)nnc3C)ccn2)CCN1C (centres unmarked) [Example 122, Ethyl 4-{2-[(4-{[6-(5-Chloro-2-Fluorophenyl)-3-Methylpyridazin-4-Yl]Amino}Pyridin-2-Yl)Carbamoyl]Ethyl}-1-Methylpiperazine-2-Carboxylate]"
5,< 1 nM,"Cc1nnc(-c2cc(Cl)c(F)cc2F)cc1Nc1ccnc(NC(=O)CCN2CCN(C)CC2)c1 [Example 151, N-(4-{[6-(5-chloro-2,4-difluorophenyl)-3-methylpyridazin-4-yl]amino}pyridin-2-yl)-3-(4-methylpiperazin-1-yl)propanamide]"
6,< 1 nM,"Cc1nnc(-c2cc(Cl)ccc2F)cc1Nc1ccnc(NC(=O)CCN2CCC(O)CC2)c1 [Example 140, N-(4-{[6-(5-Chloro-2-Fluorophenyl)-3-Methylpyridazin-4-Yl]Amino}Pyridin-2-Yl)-3-(4-Hydroxypiperidin-1-Yl)Propanamide]"
7,1 to 5 nM,"COC(=O)[C@H]1CC[C@@H](c2nnc(-c3cc(Cl)ccc3F)cc2Nc2ccnc(NC(=O)CCN3CCN(C)CC3)c2)CC1 [Example 188, methyl cis-4-(6-(5-chloro-2-fluorophenyl)-4-((2-(3-(4-methylpiperazin-1-yl)propanamido)pyridin-4-yl)amino)pyridazin-3-yl)cyclohexane-1-carboxylate]"
8,< 1 nM,"CN1CCCN(CC(=O)Nc2cc(Nc3cc(-c4cc(Cl)ccc4F)nnc3CO)ccn2)CC1 [Example 178, N-(4-{[6-(5-Chloro-2-Fluorophenyl)-3-(Hydroxymethyl)Pyridazin-4-Yl]Amino}Pyridin-2-Yl)-2-(4-Methyl-1,4-Diazepan-1-Yl)Acetamide]"
9,< 1 nM,"CN1CCN(CCC(=O)Nc2cc(Nc3cc(-c4cc(Cl)ccc4F)nnc3CO)ccn2)CC1 [Example 174, N-(4-{[6-(5-chloro-2-fluorophenyl)-3-(hydroxymethyl)pyridazin-4-yl]amino}pyridin-2-yl)-3-(4-methylpiperazin-1-yl)propanamide]"
10,< 1 nM,"Cc1nnc(-c2cc(Cl)ccc2F)cc1Nc1ccnc(NC(=O)CCN2CCN(C)C(C(=O)OC(C)C)C2)c1 (centres unmarked) [Example 126, Propan-2-Yl 4-{2-[(4-{[6-(5-Chloro-2-Fluorophenyl)-3-Methylpyridazin-4-Yl]Amino}Pyridin-2-Yl)Carbamoyl]Ethyl}-1-Methylpiperazine-2-Carboxylate]"
11,< 1 nM,"CN1CCN(CCC(=O)Nc2cc(Nc3cc(-c4cc(Cl)ccc4F)nnc3C(F)(F)F)ccn2)CC1 [Example 182, N-(4-{[6-(5-Chloro-2-Fluorophenyl)-3-(Trifluoromethyl) Pyridazin-4-Yl]Amino}Pyridin-2-Yl)-3-(4-Methylpiperazin-1-Yl)Propanamide]"
12,< 1 nM,"Cc1nnc(-c2cc(Cl)ccc2F)cc1Nc1ccnc(NC(=O)N2CCC3(CCN(C)C3)CC2)c1 [Example 150, N-(4-{[6-(5-Chloro-2-Fluorophenyl)-3-Methylpyridazin-4-Yl]Amino}Pyridin-2-Yl)-2-Methyl-2,8-Diazaspiro[4.5]Decane-8-Carboxamide]"
13,< 1 nM,"Cc1nnc(-c2cc(Cl)ccc2F)cc1Nc1ccnc(NC(=O)CN2CCN(C)C3(CC3)C2)c1 [Example 144, N-(4-{[6-(5-Chloro-2-Fluorophenyl)-3-Methylpyridazin-4-Yl]Amino}Pyridin-2-Yl)-2-{4-Methyl-4,7-Diazaspiro[2.5]Octan-7-Yl}Acetamide]"
14,< 1 nM,Fc1ccc(Cl)cc1-c1cc(Nc2ccncc2)c(C(F)(F)F)nn1 [Example 181]
